According to patent US9416115B2, “Fused heterocyclic compounds as ion channel modulators” (Gilead Sciences, Inc., priority 2013, dated 2016):

Target: hNav1.7 (Homo sapiens, UniProt Q15858)
Test: Voltage-dependent inhibition of the Nav1.7 sodium channel
Format: cell-based
Settings: voltage-dependent block of peak current
Method: HEK-293 cells stably expressing wild-type (WT) hNav1.7 were obtained from Scottish Biomedical (Glasgow, Scotland, United Kingdom). Cells are maintained with standard tissue culture procedures and stable channel expression is maintained with 500 ug/mL G418 in the culture medium. Unless otherwise noted, all reagents are purchased from Sigma-Aldrich (St Louis, Mo., U.S.A.).
Assays measuring Voltage-Dependent Block (VDB) of Nav1.7 are performed on an automated electrophysiology platform, QPatch 16X or QPatch HT (Sophion Bioscience, Copenhagen, Denmark), using the whole cell patch clamp technique to measure currents through the cell membrane. Series resistance compensation is set to 100% and series resistance and whole-cell compensation are performed automatically. Currents stored in the Sophion Bioscience Oracle database (Sophion Bioscience, Copenhagen, Denmark). Analysis is performed using QPatch Assay software and data are compiled in Excel 2010 (Microsoft, Seattle, Wash., U.S.A.).
The internal (pipette) solution consists of (in mM) 105 CsF, 10 NaF, 20 CsCl, 2 EGTA, 10 HEPES, 10 Dextrose with a pH of 7.35 and osmolarity of 300 mOsmol/kg. The external (bath) solution contains in (mM): 140 NaCl, 4 KCl, 1.8 CaCl2, 1 MgCl2, 10 dextrose, 10 HEPES, with a pH of 7.35 and osmolarity of 310 mOsmol/kg. Experiments are carried out at 23-25° C.
Compound stocks are routinely made by the Gilead Sample Bank in vials to 10 mM in dimethyl sulfoxide (DMSO). In some cases, when compounds are not soluble in DMSO, they are made in 100% ethanol. Stocks are sonicated as necessary. Compounds are diluted in extracellular solution using a MicroLab Nimbus (Hamilton Robotics, Reno, Nev.) to 1 μM in glass vials and transferred to glass well plates before robotic addition to the cells.
Cells are allowed to stabilize for 10 min after establishment of the whole-cell configuration before current is measured. The test compound is applied 3 times at 120 second intervals to allow for equilibration. Currents were leak subtracted using a P/4 procedure, low-pass Bessel filtered at 5 kHz and digitized at 25 kHz. Results are presented as mean percentage inhibition.
Voltage-dependent block of Nav1.7 peak current was measured during a voltage step to 0 mV (20 ms) following a voltage step pre-conditioning steps (−60 mV for 10 sec followed by −120 mV for 10 ms). The holding potential was −120 mV and this voltage protocol induces half maximal inactivation of Nav1.7. The voltage protocol for VDB was performed every 45 seconds in the absence and presence of compound and percentage inhibition was calculated with respect to the compound free condition.

Sequence of hNav1.7 (Q15858 whole entry): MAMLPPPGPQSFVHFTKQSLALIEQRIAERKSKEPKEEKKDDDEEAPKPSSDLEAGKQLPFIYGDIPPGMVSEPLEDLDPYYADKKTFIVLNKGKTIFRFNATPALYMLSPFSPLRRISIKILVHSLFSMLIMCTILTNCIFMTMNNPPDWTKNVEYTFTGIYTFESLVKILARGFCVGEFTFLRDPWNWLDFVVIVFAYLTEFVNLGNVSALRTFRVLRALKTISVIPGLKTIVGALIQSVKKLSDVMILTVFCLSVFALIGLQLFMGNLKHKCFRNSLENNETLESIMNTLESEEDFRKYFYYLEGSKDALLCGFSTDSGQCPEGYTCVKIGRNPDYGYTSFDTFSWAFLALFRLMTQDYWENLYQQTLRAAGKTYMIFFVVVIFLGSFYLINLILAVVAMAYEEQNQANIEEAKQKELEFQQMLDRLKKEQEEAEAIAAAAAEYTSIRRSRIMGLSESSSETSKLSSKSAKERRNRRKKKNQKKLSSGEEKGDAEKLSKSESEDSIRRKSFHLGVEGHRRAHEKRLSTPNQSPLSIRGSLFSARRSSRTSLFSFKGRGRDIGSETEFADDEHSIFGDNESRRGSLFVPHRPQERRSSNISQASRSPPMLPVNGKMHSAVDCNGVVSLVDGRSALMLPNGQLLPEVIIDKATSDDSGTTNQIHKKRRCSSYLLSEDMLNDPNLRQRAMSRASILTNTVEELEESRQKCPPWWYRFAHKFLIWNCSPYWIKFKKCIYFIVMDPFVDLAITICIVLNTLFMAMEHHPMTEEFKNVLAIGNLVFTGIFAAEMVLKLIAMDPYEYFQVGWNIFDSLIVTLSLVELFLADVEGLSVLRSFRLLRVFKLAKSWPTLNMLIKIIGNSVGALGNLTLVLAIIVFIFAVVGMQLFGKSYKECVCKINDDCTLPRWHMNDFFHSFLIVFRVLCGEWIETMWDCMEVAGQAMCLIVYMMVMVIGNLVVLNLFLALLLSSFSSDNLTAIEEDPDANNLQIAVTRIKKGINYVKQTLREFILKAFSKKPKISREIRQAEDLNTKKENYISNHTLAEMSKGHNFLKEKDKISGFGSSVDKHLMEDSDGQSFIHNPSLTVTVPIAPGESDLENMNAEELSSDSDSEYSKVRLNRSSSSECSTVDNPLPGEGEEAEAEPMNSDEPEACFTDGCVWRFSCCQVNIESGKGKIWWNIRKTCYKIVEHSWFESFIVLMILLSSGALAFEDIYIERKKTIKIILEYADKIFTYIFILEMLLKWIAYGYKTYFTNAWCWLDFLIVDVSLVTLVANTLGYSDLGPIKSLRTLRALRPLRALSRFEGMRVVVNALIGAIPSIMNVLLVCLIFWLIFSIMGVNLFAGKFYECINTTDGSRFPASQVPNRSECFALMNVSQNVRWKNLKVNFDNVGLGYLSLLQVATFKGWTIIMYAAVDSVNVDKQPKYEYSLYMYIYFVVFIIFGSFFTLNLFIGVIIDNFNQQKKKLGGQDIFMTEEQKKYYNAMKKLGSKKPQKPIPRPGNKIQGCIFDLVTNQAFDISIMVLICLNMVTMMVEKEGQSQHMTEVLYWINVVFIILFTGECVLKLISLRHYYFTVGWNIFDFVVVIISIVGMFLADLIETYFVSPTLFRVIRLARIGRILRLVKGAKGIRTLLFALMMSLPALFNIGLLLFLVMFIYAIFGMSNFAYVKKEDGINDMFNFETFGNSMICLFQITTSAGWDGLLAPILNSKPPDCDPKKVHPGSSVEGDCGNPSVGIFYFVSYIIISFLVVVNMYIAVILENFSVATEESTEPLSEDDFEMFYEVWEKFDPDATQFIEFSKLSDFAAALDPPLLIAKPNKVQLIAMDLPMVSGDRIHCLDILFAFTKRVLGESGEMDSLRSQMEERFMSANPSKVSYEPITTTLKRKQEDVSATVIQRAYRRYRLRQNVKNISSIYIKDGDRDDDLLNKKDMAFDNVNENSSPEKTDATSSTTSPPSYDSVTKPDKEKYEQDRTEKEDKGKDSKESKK

Q: Which “Nav 1.7-VDB 1 uM” value does the source give for `Cc1cc(OC(F)(F)F)ccc1-c1cc2c(OCc3ncccn3)noc2cc1C` [Example 29, 6-methyl-5-(2-methyl-4-(trifluoromethoxy)phenyl)-3-(pyrimidin-2-ylmethoxy)benzo[d]isoxazole] here?
A: 34.2 percentage inhibition
